Laboratory results from US20250040543A1, “Preservative Composition” (ARXADA AG, priority 2021, published 2025).

Experiments:
[1] = tested on: Candida albicans; assay: MIC and Synergy Index (Kull) of two-component compositions; format: cell-based
Procedure: A wide range of concentrations were tested against Pseudomonas aeruginosa, Staphylococcus aureus, Escherichia coli, and Candda albicans.
The lowest concentration of each mixture or single compound which prevents an observable level of growth was determined to be the minimum inhibitory concentration (MIC) value.
Serial dilutions of each mixture or single compound were prepared. Micro-organisms were inoculated into media: Nutrient Broth (bacteria) or Malt Extract Broth (yeast). The final concentrations of micro-organisms in media was approximately 10^5-6 CFU/ml. The inoculated media was introduced to each of the serial dilutions at a 1:1 ratio, and incubated at 30±1° C. for 24-48 hours.
The MICs for each mixture was compared with the MIC of each single compound alone.
In this study the end point is measured by the MIC.

[2] = tested on: C. albicans; assay: Preservation efficacy test in sterile distilled water, drop plate; format: cell-based, Candida albicans; conditions: 7 days, pH 7, Potassium Sorbate 0 ppm
Procedure: Yeast strains were harvested and prepared in diluent (sterile distilled water) to obtain a final concentration of 1.0×10^5 to 1.0×10^6 cfu/ml.
Preservation efficacy testing started at Day 0 (t=0). Each sample was inoculated at t=0 with a known concentration of micro-organism. Each inoculated sample was then mixed until a homogenous mixture was obtained. Inoculated samples were stored in the dark at 22.5±2.5° C. throughout the test period.
At the specified contact time of 7 days (t=7), test samples were deactivated by adding a 0.1 ml aliquot of the test sample to 0.9 ml of an appropriate neutralising broth. The solution was left for 15 minutes. Subsequent dilutions were prepared by serial dilution of 0.1 ml into 0.9 ml of neutralising broth. Bacteria were serially diluted to 10^−4, Fungi were serially diluted to 10^−3.
Each serial dilution was thoroughly mixed and 25 μl drops were aliquoted onto the surface of pre-prepared agar plates. Plates were prepared in sextupicate for each sample dilution.
The agar plates were allowed to dry, then inverted and incubated under conditions appropriate for the test microorganisms.
CFU/ml was calculated taking into account dilution factors. Colonies from the incubated plates were enumerated using the lower count limit of <10 CFU/ml and the upper count limit of >330 CFU/ml.
The lower and upper limits for drop plating were only employed on the highest and lowest dilution factor plates.
The test organisms were prepared and the method was performed according to the protocol of Example 1.

[3] = tested on: Aspergillus brasiliensis ATCC 16404; assay: as above; format: cell-based; conditions: 7 days
Procedure: (§1) In the following example, the following test organisms were used: • Pseudomonas aeruginosa ATCC 9027 • Aspergillus brasiliensis ATCC 16404 [table] Mould strain spores were harvested (sterile distilled water+0.05% polysorbate 80) and treated to remove fungal hyphae. Mould strain spores were prepared in diluent (sterile distilled water) to obtain a final concentration of 1.0×10^5 to 1.0×10^5 cfu/ml. [table] […] Each sample was inoculated at t=0 with a known concentration of micro-organism. Each inoculated sample was then mixed until a homogenous mixture was obtained. […] The solution was left for 15 minutes. Subsequent dilutions were prepared by serial dilution of 0.1 ml into 0.9 ml of neutralising broth. Bacteria were serially diluted to 10^−4, Fungi were serially diluted to 10^−3. Each serial dilution was thoroughly mixed and 25 μl drops were aliquoted onto the surface of pre-prepared agar plates. Plates were prepared in sextupicate for each sample dilution. The agar plates were allowed to dry, then inverted and incubated under conditions appropriate for the test microorganisms. CFU/ml was calculated taking into account dilution factors. […] The lower and upper limits for drop plating were only employed on the highest and lowest dilution factor plates.

[4] = tested on: Pseudomonas aeruginosa ATCC 9027; assay: as above; format: cell-based; conditions: 7 days
Procedure: as §1, with “[table] Bacteria” for “[table] Mould strain spores”, “harvested” for “harvested (sterile distilled water+0.05% polysorbate 80)”, “and” for “and treated to remove fungal hyphae. Mould strain spores were”, “of 1.0×10^6” for “of 1.0×10^5”, “to 5.0×10^6” for “to 1.0×10^5”

[5] = pH 7, Butyl Levulinate 500 ppm, Potassium Sorbate 0 ppm
[6] = pH 7, Butyl Levulinate 1000 ppm, Potassium Sorbate 0 ppm
[7] = pH 7, Butyl Levulinate 1500 ppm, Potassium Sorbate 0 ppm
[8] = pH 7, Butyl Levulinate 1500 ppm, Sodium Benzoate 0 ppm
[9] = pH 7, Butyl Levulinate 2000 ppm, Potassium Sorbate 0 ppm
[10] = pH 7, Butyl Levulinate 2000 ppm, Sodium Benzoate 0 ppm
[11] = pH 7, Butyl Levulinate 2500 ppm, Potassium Sorbate 0 ppm
[12] = pH 7, Butyl Levulinate 2500 ppm, Sodium Benzoate 0 ppm
[13] = pH 8, Butyl Levulinate 500 ppm, Sodium Benzoate 0 ppm
[14] = pH 8, Butyl Levulinate 1000 ppm, Sodium Benzoate 0 ppm
[15] = pH 8, Butyl Levulinate 1500 ppm, Sodium Benzoate 0 ppm
[16] = pH 8, Butyl Levulinate 2000 ppm, Sodium Benzoate 0 ppm
[17] = pH 8, Butyl Levulinate 2500 ppm, Sodium Benzoate 0 ppm

With `CCCCOC(=O)CCC(C)=O` [Butyl Levulinate, butyl levulinate] the MIC ([1]; Candida albicans, butyl levulinate alone, or its concentration in the mixture with Sodium benzoate, read-out: MIC (ppm) to inhibit growth: Butyl levulinate) was 6250 µg/mL, the “MIC (ppm) to inhibit growth: Butyl levulinate” value (“MIC (ppm) to inhibit growth” for short) ([1]; butyl levulinate alone, or its concentration in the mixture with BIT) was 6250 ppm and the “MIC (ppm) to inhibit growth” value ([1]; butyl levulinate alone, or its concentration in the mixture with DHA) was 6250 ppm. The “MIC (ppm) to inhibit growth” value ([1]; butyl levulinate alone, or its concentration in the mixture with HPNO) was 6250 ppm, the “MIC (ppm) to inhibit growth” value ([1]; butyl levulinate alone, or its concentration in the mixture with PHMB) was 6250 ppm and the “MIC (ppm) to inhibit growth” value ([1]; butyl levulinate alone, or its concentration in the mixture with Potassium Sorbate) was 6250 ppm. The “MIC (ppm) to inhibit growth” value ([1]; butyl levulinate alone, or its concentration in the mixture with Sodium pyrithione) was 6250 ppm, the Log reduction ([2]; Butyl Levulinate 500 ppm) was 0.11 and the Log reduction ([2]; Butyl Levulinate 1000 ppm) was 0.22. The Log reduction ([2]; Butyl Levulinate 1500 ppm) was 0.11, the Log reduction ([2]; Butyl Levulinate 2000 ppm) was −0.11 and the Log reduction ([2]; Butyl Levulinate 2500 ppm) was 0.18. It also gave a Log reduction ([3]; pH 7, Butyl Levulinate 500 ppm, IPBC 0 ppm) of 0.61, a Log reduction [3, 5] of 0.10 and a Log reduction ([3]; pH 7, Butyl Levulinate 500 ppm, Sodium Benzoate 0 ppm) of 1.90. The Log reduction ([3]; pH 7, Butyl Levulinate 1000 ppm, IPBC 0 ppm) was 0.60, the Log reduction [3, 6] was 0.10 and the Log reduction ([3]; pH 7, Butyl Levulinate 1000 ppm, Sodium Benzoate 0 ppm) was 1.82. It also gave a Log reduction ([3]; pH 7, Butyl Levulinate 1500 ppm, IPBC 0 ppm) of 0.74, a Log reduction [3, 7] of 0.31 and a Log reduction [3, 8] of 1.85. The Log reduction ([3]; pH 7, Butyl Levulinate 2000 ppm, IPBC 0 ppm) was 0.70, the Log reduction [3, 9] was −0.01 and the Log reduction [3, 10] was 2.01. For the same compound, the Log reduction ([3]; pH 7, Butyl Levulinate 2500 ppm, IPBC 0 ppm) was 0.72, the Log reduction [3, 11] was 0.18 and the Log reduction [3, 12] was 1.80. For the same compound, the Log reduction [3, 13] was 0.64, the Log reduction [3, 14] was 0.36 and the Log reduction [3, 15] was 0.36. The Log reduction [3, 16] was 0.38, the Log reduction [3, 17] was 0.33 and the Log reduction [4, 5] was <0.03. For the same compound, the Log reduction [4, 6] was <0.03, the Log reduction [4, 7] was <0.03 and the Log reduction [4, 8] was <0.38. The Log reduction [4, 9] was <0.03, the Log reduction [4, 10] was <0.38 and the Log reduction [4, 11] was <0.03. For the same compound, the Log reduction [4, 12] was <0.38, the Log reduction ([4]; pH 8, Butyl Levulinate 500 ppm, Potassium Sorbate 0 ppm) was <0.33 and the Log reduction [4, 13] was <0.05. The Log reduction ([4]; pH 8, Butyl Levulinate 1000 ppm, Potassium Sorbate 0 ppm) was <0.33, the Log reduction [4, 14] was <0.05 and the Log reduction ([4]; pH 8, Butyl Levulinate 1500 ppm, Potassium Sorbate 0 ppm) was <0.33. The Log reduction [4, 15] was <0.05, the Log reduction ([4]; pH 8, Butyl Levulinate 2000 ppm, Potassium Sorbate 0 ppm) was <0.33 and the Log reduction [4, 16] was <0.05. The Log reduction ([4]; pH 8, Butyl Levulinate 2500 ppm, Potassium Sorbate 0 ppm) was <0.33 and the Log reduction [4, 17] was <0.05.
